Measured values from US20220267736A1, “PLURIPOTENT STEM CELL AGGREGATION SUPPRESSOR” (KANEKA CORPORATION, priority 2017, published 2022).

Tested on: human iPS cells (TkDN4-M)
Assay: Cell aggregate size distribution (widest portion) from micrographs during suspension culture
Type: cell-based
Details: cytochalasin D 20 nM, jasplakinolide 20 nM, demecolcine 10 ng/mL; for percentage of cell aggregates whose size (diameter) was 40 μm or more and 300 μm or less, relative to the total cell aggregate count / percentage of cell aggregates whose size (diameter) was 60 μm or more and 300 μm or less / percentage of cell aggregates whose size (diameter) was 80 μm or more and 300 μm or less / percentage of cell aggregates whose size (diameter) was 100 μm or more and 300 μm or less / Number of cell aggregates by size / Percentage of cell aggregates by size: Day 1, DMSO 1%; for average ± standard deviation of cell aggregate sizes (diameters): Day 1 of culture, DMSO 1% (v/v), Y-27632 10 μM
Experimental: Cell suspensions were prepared in the same manner as in Example 2, and separately, the concentrations of the suppressors of cell aggregation were adjusted so that the final concentration of demecolcine (same as above) was 10 mg/mL (26.9 mM), the final concentration of cytochalasin D (same as above) was 0.51 mg/mL (1 mM), the concentration of DMSO (the same as above) was the stock concentration, or the final concentration of jasplakinolide (Cayman, 11705) was 0.14 mg/mL (0.2 mM). Then the concentration-adjusted cell aggregation suppressors were added to the cell suspensions so that the final concentration of demecolcine was 10 ng/mL, the final concentration of cytochalasin D was 20 nM, the final concentration of DMSO was 1% (v/v), or the final concentration of jasplakinolide was 20 nM, and the cells were seeded at a rate of 4 mL/well in a 6-well plate for suspension culture (Sumitomo Bakelite Co., Ltd., Japan). The cell-seeded plate was subjected to a swirling culture on a rotary shaker (OPTIMA, Inc., Japan) at a speed of 90 rpm along the horizontal plane to draw a circle with a swirling width (diameter) of 25 mm and cells were subjected to suspension culture under the environment of 5% CO2 and 37° C. After the next day of culture (Day 1 of culture), the culture medium was exchanged daily with a fresh culture medium (Essential 8™ culture medium containing BSA (Wako Pure Chemical Industries, Ltd.) at a final concentration of 5 mg/mL), and the culture was continued until 5 days after the start of culture. Images were obtained by phase contrast microscopy every day during culture. While 182 to 252 cell aggregates in images obtained on Day 1 of culture being observed and compared using a micrograph scale, the width (referred to as “φ”) of the widest portion of each cell aggregate was measured, distribution thereof was examined, and average±standard deviation was calculated. The concentration of glucose contained in the culture supernatant collected at the time of culture medium exchange was measured with biosensor BF-5iD (Prince Measuring Equipment Co., Ltd.) to calculate glucose consumption.

| SMILES | percentage of cell aggregates whose size (diameter) was 40 μm or more and 300 μm or less, relative to the total cell aggregate count [%] | percentage of cell aggregates whose size (diameter) was 60 μm or more and 300 μm or less [%] | percentage of cell aggregates whose size (diameter) was 80 μm or more and 300 μm or less [%] | percentage of cell aggregates whose size (diameter) was 100 μm or more and 300 μm or less [%] | Number of cell aggregates by size (size range 40− μm) | Percentage of cell aggregates by size (size range 40− μm) [%] | Number of cell aggregates by size (size range 60− μm) | Percentage of cell aggregates by size (size range 60− μm) [%] | Number of cell aggregates by size (size range 80− μm) | Percentage of cell aggregates by size (size range 80− μm) [%] | Number of cell aggregates by size (size range 100− μm) | Percentage of cell aggregates by size (size range 100− μm) [%] | Number of cell aggregates by size (size range 120− μm) | Percentage of cell aggregates by size (size range 120− μm) [%] | Number of cell aggregates by size (size range 140− μm) | Percentage of cell aggregates by size (size range 140− μm) [%] | Number of cell aggregates by size (size range 160− μm) | Percentage of cell aggregates by size (size range 160− μm) [%] | Number of cell aggregates by size (size range 180− μm) | Percentage of cell aggregates by size (size range 180− μm) [%] | other results |
| --- | --- | --- | --- | --- | --- | --- | --- | --- | --- | --- | --- | --- | --- | --- | --- | --- | --- | --- | --- | --- | --- |
| C/C1=C\[C@H](C)C[C@H](C)OC(=O)C[C@H](c2ccc(O)cc2)NC(=O)[C@@H](Cc2c(Br)[nH]c3ccccc23)N(C)C(=O)[C@H](C)NC(=O)[C@@H](C)C1 [jasplakinolide] | 100 | 98.1 | 96.2 | 95.7 | 4 | 1.9 | 4 | 1.9 | 1 | 0.5 | 8 | 3.9 | 23 | 11.2 | 52 | 25.2 | 66 | 32.0 | 30 | 14.6 | Number of cell aggregates by size (size range 200− μm): 9; Percentage of cell aggregates by size (size range 200− μm): 4.4%; Number of cell aggregates by size (size range 220− μm): 4; Percentage of cell aggregates by size (size range 220− μm): 1.9%; Number of cell aggregates by size (size range 240− μm): 1; Percentage of cell aggregates by size (size range 240− μm): 0.5%; Number of cell aggregates by size (size range 260− μm): 1; Percentage of cell aggregates by size (size range 260− μm): 0.5%; Number of cell aggregates by size (size range 280− μm): 2; Percentage of cell aggregates by size (size range 280− μm): 1.0%; Number of cell aggregates by size (size range 300− μm): 1; Percentage of cell aggregates by size (size range 300− μm): 0.5%; average ± standard deviation of cell aggregate sizes (diameters): 162.7±37.2 μm |
| CN[C@H]1CCc2cc(OC)c(OC)c(OC)c2-c2ccc(OC)c(=O)cc21 [demecolcine] | 100 | 97.3 | 93.5 | 92.4 | 5 | 2.7 | 7 | 3.8 | 2 | 1.1 | 0 | 0.0 | 2 | 1.1 | 16 | 8.8 | 37 | 20.3 | 45 | 24.7 | Number of cell aggregates by size (size range 200− μm): 38; Percentage of cell aggregates by size (size range 200− μm): 20.9%; Number of cell aggregates by size (size range 220− μm): 19; Percentage of cell aggregates by size (size range 220− μm): 10.4%; Number of cell aggregates by size (size range 240− μm): 8; Percentage of cell aggregates by size (size range 240− μm): 4.4%; Number of cell aggregates by size (size range 260− μm): 2; Percentage of cell aggregates by size (size range 260− μm): 1.1%; Number of cell aggregates by size (size range 280− μm): 0; Percentage of cell aggregates by size (size range 280− μm): 0.0%; Number of cell aggregates by size (size range 300− μm): 1; Percentage of cell aggregates by size (size range 300− μm): 0.5%; average ± standard deviation of cell aggregate sizes (diameters): 184.9±44.9 μm |
| C[S+](C)[O-] [DMSO, dimethylsulfoxide] | 100 | 100 | 98.5 | 96.0 | 0 | 0.0 | 3 | 1.5 | 5 | 2.5 | 2 | 1.0 | 24 | 12.1 | 56 | 28.1 | 56 | 28.1 | 33 | 16.6 | Number of cell aggregates by size (size range 200− μm): 12; Percentage of cell aggregates by size (size range 200− μm): 6.0%; Number of cell aggregates by size (size range 220− μm): 5; Percentage of cell aggregates by size (size range 220− μm): 2.5%; Number of cell aggregates by size (size range 240− μm): 1; Percentage of cell aggregates by size (size range 240− μm): 0.5%; Number of cell aggregates by size (size range 260− μm): 1; Percentage of cell aggregates by size (size range 260− μm): 0.5%; Number of cell aggregates by size (size range 280− μm): 1; Percentage of cell aggregates by size (size range 280− μm): 0.5%; Number of cell aggregates by size (size range 300− μm): 0; Percentage of cell aggregates by size (size range 300− μm): 0.0%; average ± standard deviation of cell aggregate sizes (diameters): 164.8±31.8 μm |
| C=C1[C@@H](C)[C@H]2[C@H](Cc3ccccc3)NC(=O)[C@]23[C@H](OC(C)=O)/C=C/[C@@](C)(O)C(=O)[C@@H](C)C/C=C/[C@H]3[C@@H]1O [cytochalasin D] | 100 | 96 | 88.1 | 80.6 | 10 | 4.0 | 20 | 7.9 | 19 | 7.5 | 26 | 10.3 | 60 | 23.8 | 66 | 26.2 | 40 | 15.9 | 10 | 4.0 | Number of cell aggregates by size (size range 200− μm): 0; Percentage of cell aggregates by size (size range 200− μm): 0.0%; Number of cell aggregates by size (size range 220− μm): 1; Percentage of cell aggregates by size (size range 220− μm): 0.4%; Number of cell aggregates by size (size range 240− μm): 0; Percentage of cell aggregates by size (size range 240− μm): 0.0%; Number of cell aggregates by size (size range 260− μm): 0; Percentage of cell aggregates by size (size range 260− μm): 0.0%; Number of cell aggregates by size (size range 280− μm): 0; Percentage of cell aggregates by size (size range 280− μm): 0.0%; Number of cell aggregates by size (size range 300− μm): 0; Percentage of cell aggregates by size (size range 300− μm): 0.0%; average ± standard deviation of cell aggregate sizes (diameters): 132.5±34.8 μm |
